Where a SMILES comes first, the peptide text is derived from it. Bridges are numbered along the chain shown (N, C = ends). [ ]: non-standard residue; d: D form. The star is where a group is joined. hPhe(3-Cl-4-CF3) = N[C@@H](CCc1ccc(C(F)(F)F)c(Cl)c1)C(=O)O; NPrPhe(4-CF3) = CCCN[C@@H](Cc1ccc(C(F)(F)F)cc1)C(=O)O; Pip(4,4-F2) = O=C(O)[C@@H]1CC(F)(F)CCN1; NMeGly(cPent) = CN[C@H](C(=O)O)C1CCCC1; Pro(4,4-F2) = O=C(O)[C@@H]1CC(F)(F)CN1; NMeD = CN[C@@H](CC(=O)O)C(=O)O; NMeL = CN[C@@H](CC(C)C)C(=O)O; Pip = O=C(O)[C@@H]1CCCCN1; Morpholide = C1CN(*)CCO1; NMeA = CN[C@@H](C)C(=O)O; Ac5c = NC1(C(=O)O)CCCC1; Aze = O=C(O)[C@@H]1CCN1; NEtG = CCNCC(=O)O; Sar = CNCC(=O)O
Experiments:
[1] = target: GDP-bound HRAS wild-type protein (Homo sapiens, UniProt P01112); test: Binding to HRAS by surface plasmon resonance (SPR), Single Cycle Kinetics
[2] = target: GDP-bound NRAS wild-type protein (Homo sapiens, UniProt P01111); test: Binding to NRAS by surface plasmon resonance (SPR), Single Cycle Kinetics
[3] = SPR, GDP-bound HRAS wild-type vs GDP-bound KRAS wild-type
[4] = SPR, GDP-bound NRAS wild-type vs GDP-bound KRAS wild-type

Chain of GDP-bound HRAS wild-type protein (P01112 whole entry): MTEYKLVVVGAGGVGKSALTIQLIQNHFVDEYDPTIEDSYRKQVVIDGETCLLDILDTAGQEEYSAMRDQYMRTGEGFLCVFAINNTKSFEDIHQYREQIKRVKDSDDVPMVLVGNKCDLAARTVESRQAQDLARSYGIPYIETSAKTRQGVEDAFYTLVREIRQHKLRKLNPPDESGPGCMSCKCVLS
Chain of GDP-bound NRAS wild-type protein (P01111 whole entry): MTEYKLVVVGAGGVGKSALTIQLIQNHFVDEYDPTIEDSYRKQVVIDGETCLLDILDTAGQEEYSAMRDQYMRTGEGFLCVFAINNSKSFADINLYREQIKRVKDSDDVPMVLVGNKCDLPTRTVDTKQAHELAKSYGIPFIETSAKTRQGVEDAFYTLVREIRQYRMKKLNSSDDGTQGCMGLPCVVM

`CCCN1C(=O)[C@@H]2CCN2C(=O)[C@H](C)N(C)C(=O)[C@H]([C@@H](C)CC)NC(=O)[C@H](CC(C)C)N(C)C(=O)C[C@@H](C(=O)N2CCOCC2)N(C)C(=O)[C@H](C2CCCC2)N(C)C(=O)C2(CCCC2)NC(=O)[C@@H]2CCCCN2C(=O)[C@H](CCc2ccc(C(F)(F)F)c(Cl)c2)NC(=O)CN(C)C(=O)[C@@H]1Cc1ccc(C(F)(F)F)cc1` [PP0284] ([NMeL]I[NMeA][Aze][NPrPhe(4-CF3)][Sar][hPhe(3-Cl-4-CF3)][Pip][Ac5c][NMeGly(cPent)][NMeD]-Morpholide; lactam N-11) was tested, and the “HRAS/KRAS (ratio of KD for GDP-bound HRAS wild-type to KD for KRAS)” value ([1]; KD ratio HRAS/KRAS, SPR) was “B (a compound having 3 or more and less than 10 is denoted as B)” and the “NRAS/KRAS (ratio of KD for GDP-bound NRAS wild-type to KD for KRAS)” value ([2]; KD ratio NRAS/KRAS, SPR) was “C (A compound having a KD ratio of 0.1 or more and less than 3 is denoted as C)”.
With `CCCN1C(=O)CN(C)C(=O)CN(CC)C(=O)[C@H]([C@@H](C)CC)NC(=O)[C@H](CC(C)C)N(C)C(=O)C[C@@H](C(=O)N2CCOCC2)N(C)C(=O)[C@H](C2CCCC2)N(C)C(=O)C2(CCCC2)NC(=O)[C@@H]2CC(F)(F)CCN2C(=O)[C@H](CCc2ccc(C(F)(F)F)c(Cl)c2)NC(=O)CN(C)C(=O)[C@@H]1Cc1ccc(C(F)(F)F)cc1` [PP0298] ([NMeL]I[NEtG][Sar][NPrPhe(4-CF3)][Sar][hPhe(3-Cl-4-CF3)][Pip(4,4-F2)][Ac5c][NMeGly(cPent)][NMeD]-Morpholide; lactam N-11) the “HRAS/KRAS (ratio of KD for GDP-bound HRAS wild-type to KD for KRAS)” value ([1]; KD ratio HRAS/KRAS, SPR) was “C (A compound having a KD ratio of 0.1 or more and less than 3 is denoted as C)” and the “NRAS/KRAS (ratio of KD for GDP-bound NRAS wild-type to KD for KRAS)” value ([2]; KD ratio NRAS/KRAS, SPR) was “B (a compound having 3 or more and less than 10 is denoted as B)”.
In the case of `CCOC[C@H]1C(=O)N[C@@H]([C@@H](C)CC)C(=O)N(C)CC(=O)N(C)[C@H]2C/C=C\CCN(C2=O)[C@@H](Cc2ccc(C)cc2)C(=O)N(C)CC(=O)N[C@@H](CCc2cc(F)c(C(F)(F)F)c(F)c2)C(=O)N2C[C@@H](C)C[C@H]2C(=O)NC2(CC(C)(C)C2)C(=O)N(C)[C@@H](C2CCCC2)C(=O)N(C)[C@H](C(=O)N(C)C)CC(=O)N1C` [PP2439], the “HRAS/KRAS (ratio of KD value with respect to HRAS to KD value with respect to KRAS)” value [1, 3] is reported as “A (a compound having 10 or more and less than 20 is denoted as A)” and the “NRAS/KRAS (ratio of KD value with respect to NRAS to KD value with respect to KRAS)” value [2, 4] is reported as “A (a compound having 10 or more and less than 20 is denoted as A)”.
With `CCC(CC)[C@H]1C(=O)N(C)[C@H](C(=O)N(C)C)CC(=O)N(C)[C@@H](COC)C(=O)N[C@@H]([C@@H](C)CC)C(=O)N2CCC[C@H]2C(=O)N(C)[C@H]2C/C=C\CCN(C2=O)[C@@H](Cc2ccc(C(F)F)cc2)C(=O)N(C)CC(=O)N[C@@H](CCc2ccc(Cl)c(Cl)c2)C(=O)N2C[C@H](OC3CCCC3)C[C@H]2C(=O)NC2(CC(C)(C)C2)C(=O)N1C` [PP2652] the “HRAS/KRAS (ratio of KD value with respect to GDP-bound HRAS wild-type protein to KD value with respect to KRAS)” value ([1]; KD ratio HRAS/KRAS, class symbols) was “A (a compound having 10 or more and less than 20 is denoted as A)” and the “NRAS/KRAS (ratio of KD value with respect to GDP-bound NRAS wild-type protein to KD value with respect to KRAS)” value ([2]; KD ratio NRAS/KRAS, class symbols) was “AA (a compound having 20 or more is denoted as AA)”.
In the case of `CCOC[C@H]1C(=O)N[C@@H]([C@@H](C)CC)C(=O)N(C)CC(=O)N(C)[C@H]2C/C=C\CCN(C2=O)[C@@H](Cc2ccc(C)cc2)C(=O)N(C)CC(=O)N[C@@H](CCc2ccc(C(F)(F)F)c(OC)c2)C(=O)N2C[C@H](OCC)C[C@H]2C(=O)NC2(CC(C)(C)C2)C(=O)N(C)[C@@H](C2CCCC2)C(=O)N(C)[C@H](C(=O)N(CC)CC)CC(=O)N1C` [PP2406], the “HRAS/KRAS (ratio of KD value with respect to HRAS to KD value with respect to KRAS)” value [1, 3] is reported as “A (a compound having 10 or more and less than 20 is denoted as A)” and the “NRAS/KRAS (ratio of KD value with respect to NRAS to KD value with respect to KRAS)” value [2, 4] is reported as “A (a compound having 10 or more and less than 20 is denoted as A)”.
In the case of `CCCOC[C@H]1C(=O)N[C@@H]([C@@H](C)CC)C(=O)N(C)CC(=O)N(C)[C@H]2C/C=C\CCN(C2=O)[C@@H](Cc2ccc(C(F)(F)F)cc2)C(=O)N(C)CC(=O)N[C@@H](CCc2ccc(C(F)(F)F)c(Cl)c2)C(=O)N2C[C@H](OCC)C[C@H]2C(=O)NC2(CC(C)(C)C2)C(=O)N(C)[C@@H](C2CCCC2)C(=O)N(C)[C@H](C(=O)N(C)C)CC(=O)N1C` [PP1754], the “HRAS/KRAS (ratio of KD value for HRAS to KD value for KRAS)” value ([1]; KD ratio, GDP-bound HRAS wild-type vs GDP-bound KRAS wild-type, SPR) is reported as “A (a compound having 10 or more and less than 20 is denoted as A)” and the “NRAS/KRAS (ratio of KD value for NRAS to KD value for KRAS)” value ([2]; KD ratio, GDP-bound NRAS wild-type vs GDP-bound KRAS wild-type, SPR) is reported as “A (a compound having 10 or more and less than 20 is denoted as A)”.
`CCCN1C(=O)CN(C)C(=O)CN(C)C(=O)[C@H]([C@@H](C)CC)NC(=O)[C@H](CC(C)C)N(C)C(=O)C[C@@H](C(=O)N2CCOCC2)N(C)C(=O)[C@H](C2CCCC2)N(C)C(=O)C2(CCCC2)NC(=O)[C@@H]2CC(F)(F)CN2C(=O)[C@H](CCc2ccc(C(F)(F)F)c(Cl)c2)NC(=O)CN(C)C(=O)[C@@H]1Cc1ccc(C(F)(F)F)cc1` [PP0195] ([NMeL]I[Sar][Sar][NPrPhe(4-CF3)][Sar][hPhe(3-Cl-4-CF3)][Pro(4,4-F2)][Ac5c][NMeGly(cPent)][NMeD]-Morpholide; lactam N-11) was tested, and the “HRAS/KRAS (ratio of KD for GDP-bound HRAS wild-type to KD for KRAS)” value ([1]; KD ratio HRAS/KRAS, SPR) was “C (A compound having a KD ratio of 0.1 or more and less than 3 is denoted as C)” and the “NRAS/KRAS (ratio of KD for GDP-bound NRAS wild-type to KD for KRAS)” value ([2]; KD ratio NRAS/KRAS, SPR) was “B (a compound having 3 or more and less than 10 is denoted as B)”.

From patent publication US20250230193A1, “CYCLIC COMPOUND HAVING SELECTIVE KRAS INHIBITORY EFFECT ON HRAS AND NRAS” (CHUGAI SEIYAKU KABUSHIKI KAISHA, priority 2022, published 2025)
